≈ marks a conversion by molar mass, not a printed value.
Target: T1, α-amylase
T1 construct: gene AMY2
Assay: DNS starch hydrolysis assay, absorbance at […] nm
Format: biochemical

Row | Compound | IC50 value
1 | CCCN(CCC)S(=O)(=O)c1ccc(-c2nnc(SCCCN3C(=O)c4ccccc4C3=O)o2)cc1 [compound 1, 4–(5-(3–(1,3-Dioxoisoindolin-2-yl)propylthio)-1,3,4-oxadiazol-2-yl)-N,N-dipropylbenzenesulfonamide] | 92.23 ± 0.23 µg/mL (≈ 174 µM)
2 | CCCN(CCC)S(=O)(=O)c1ccc(-c2nnc(SCCCCN3C(=O)c4ccccc4C3=O)o2)cc1 [compound 2, 4–(5-(4–(1,3-Dioxoisoindolin-2-yl)butylthio)-1,3,4-oxadiazol-2-yl)-N,N-dipropylbenzenesulfonamide] | 76.92 ± 0.19 µg/mL (≈ 142 µM)
